# Reference: BindingDB's records for doi:10.1038/sj.bjp.0705964 (Johnson & Johnson Pharmaceutical Research and Development, 2004)
# Columns and labels:
# Hrh3 protein = Hrh3 protein (Rattus norvegicus, UniProt Q5PPG3)
# Histamine H4 receptor = Histamine H4 receptor (Homo sapiens, UniProt Q9H3N8)
# Histamine H2 receptor = Histamine H2 receptor (Homo sapiens, UniProt P25021)
# Sequence of Histamine H2 receptor (P25021 whole entry): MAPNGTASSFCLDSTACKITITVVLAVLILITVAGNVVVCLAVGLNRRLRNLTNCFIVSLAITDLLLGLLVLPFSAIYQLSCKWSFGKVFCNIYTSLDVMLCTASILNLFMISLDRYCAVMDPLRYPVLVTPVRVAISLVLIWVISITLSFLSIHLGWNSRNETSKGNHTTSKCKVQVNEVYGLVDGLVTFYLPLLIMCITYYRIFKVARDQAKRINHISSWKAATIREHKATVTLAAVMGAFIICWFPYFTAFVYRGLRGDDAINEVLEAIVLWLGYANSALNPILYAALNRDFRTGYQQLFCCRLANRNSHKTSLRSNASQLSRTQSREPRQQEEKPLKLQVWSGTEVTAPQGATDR
# Sequence of Hrh3 protein (Q5PPG3 whole entry): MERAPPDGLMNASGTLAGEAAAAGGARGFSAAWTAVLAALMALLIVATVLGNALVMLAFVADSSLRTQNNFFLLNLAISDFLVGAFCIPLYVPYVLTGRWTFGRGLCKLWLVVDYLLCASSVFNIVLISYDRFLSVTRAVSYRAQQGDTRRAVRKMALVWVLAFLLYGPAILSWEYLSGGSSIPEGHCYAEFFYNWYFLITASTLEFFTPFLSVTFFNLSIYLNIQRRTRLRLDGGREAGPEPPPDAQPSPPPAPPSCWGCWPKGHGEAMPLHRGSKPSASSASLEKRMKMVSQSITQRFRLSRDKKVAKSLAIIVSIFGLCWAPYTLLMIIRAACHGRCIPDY
# Sequence of Histamine H4 receptor (Q9H3N8 whole entry): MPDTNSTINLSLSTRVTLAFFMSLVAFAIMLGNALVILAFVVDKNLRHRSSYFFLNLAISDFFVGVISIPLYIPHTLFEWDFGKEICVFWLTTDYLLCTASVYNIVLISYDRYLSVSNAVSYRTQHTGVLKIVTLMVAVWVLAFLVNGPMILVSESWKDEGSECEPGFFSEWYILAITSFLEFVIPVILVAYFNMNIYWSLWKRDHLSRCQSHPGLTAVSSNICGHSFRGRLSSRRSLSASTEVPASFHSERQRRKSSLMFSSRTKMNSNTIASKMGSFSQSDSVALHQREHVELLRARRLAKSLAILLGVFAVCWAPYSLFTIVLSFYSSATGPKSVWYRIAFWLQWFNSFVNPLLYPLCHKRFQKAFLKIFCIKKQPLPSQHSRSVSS
smiles,measurement,setting,value
c1cc(OCCCN2CCCCC2)ccc1CN1CCCCC1 [1-(3-(4-(piperidin-1-ylmethyl)phenoxy)propyl)piperidine],Ki,Hrh3 protein,0.00126 µM
same,Ki,Histamine H4 receptor,> 10 µM
same,Ki,Histamine H2 receptor,> 10 µM
